According to US20230132823A1, “BI-FUNCTIONAL COMPOUNDS AND METHODS FOR TARGETED UBIQUITINATION OF ANDROGEN RECEPTOR” (MONTELINO THERAPEUTICS, INC., priority 2020, published 2023):
Where a SMILES comes first, the peptide text is derived from it. [ ]: non-standard residue; d: D form. The star is where a group is joined. X3 = O=C(NCCCCCCN*)c1cccc2sc(N3CCOCC3)nc12; Dip = N[C@H](C(=O)O)C(c1ccccc1)c1ccccc1; Chg = N[C@H](C(=O)O)C1CCCCC1; NMeA = CN[C@@H](C)C(=O)O

What follows are compounds tested on 22Rv1 (assay: 22Rv1 cell proliferation assay (Experimental Example 1, cell count)). Details: Homo sapiens, 22Rv1, read-out: 22Rv1 cell count decrease at 10 μM for 48 hours.
Format: cell-based
Method: The human prostate cancer cell line, 22Rv1 has been reported to express a high level of AR-V7. […] Standard culture media was RPMI-1640 supplemented with 10% fetal bovine serum. The test compound initially was dissolved in DMSO at 50 mM. This stock solution was then diluted as needed for the indicated concentrations. […]
In the Table: (+)—the cell count decreased between 0 and 20%; (++)—the cell count decreased […]; (+++)—the cell count decreased by more than 50%.
With `CN[C@@H](C)C(=O)N[C@H](C(=O)N1CCC[C@H]1C(=O)N[C@H](C(=O)NCCCCCCNC(=O)c1cccc2sc(N3CCOCC3)nc12)C(c1ccccc1)c1ccccc1)C1CCCCC1` [Example 31, N-(6-((S)-2-((S)-1-((S)-2-cyclohexyl-2-((S)-2-(methylamino)propanamido)acetyl)pyrrolidine-2-carboxamido)-3,3-diphenylpropanamido)hexyl)-2-morpholinobenzo[d]thiazole-4-carboxamide] (H-[NMeA][Chg]P[Dip]-X3) the inhibition at 10 µM was > 50%.

Same assay, conditions: Homo sapiens, 22Rv1, read-out: 22Rv1 cell count decrease at 10 μM for 48 hours; 10 μM (method: four days); read-out: 22Rv1 cell count decrease at 10 μM
`O=C(COc1cccc2c1C(=O)N(C1CCC(=O)NC1=O)C2=O)NCCOCCOCCOCCOCCOc1c(-c2csc(N3CCOCC3)n2)ccc(F)c1F` (centres unmarked) [Example 14, N-(14-(2,3-difluoro-6-(2-morpholinothiazol-4-yl)phenoxy)-3,6,9,12-tetraoxatetradecyl)-2-((2-(2,6-dioxopiperidin-3-yl)-1,3-dioxoisoindolin-4-yl)oxy)acetamide] was tested, and the inhibition at 10 µM was 0 to 20%. `O=C(COc1cccc2c1C(=O)N(C1CCC(=O)NC1=O)C2=O)NCCOCCOCCOCCNC(=O)COc1c(-c2csc(N3CCOCC3)n2)ccc(F)c1F` (centres unmarked) [Example 11, 2-(2,3-difluoro-6-(2-morpholinothiazol-4-yl)phenoxy)-N-(1-((2-(2,6-dioxopiperidin-3-yl)-1,3-dioxoisoindolin-4-yl)oxy)-2-oxo-6,9,12-trioxa-3-azatetradecan-14-yl)acetamide] was tested, and the inhibition at 10 µM was 0 to 20%. In the case of `Cc1ncsc1-c1ccc([C@H](C)NC(=O)[C@@H]2C[C@@H](O)CN2C(=O)[C@@H](NC(=O)CCCCCNC(=O)COc2c(-c3csc(N4CCOCC4)n3)ccc(F)c2F)C(C)(C)C)cc1` [Example 17, (2S,4R)-1-((S)-2-(6-(2-(2,3-difluoro-6-(2-morpholinothiazol-4-yl)phenoxy)acetamido)hexanamido)-3,3-dimethylbutanoyl)-4-hydroxy-N-((S)-1-(4-(4-methylthiazol-5-yl)phenyl)ethyl)pyrrolidine-2-carboxamide], the inhibition at 10 µM is reported as < 50%. For `O=C1CCC(N2C(=O)c3cccc(NCCOCCOCCOc4c(-c5csc(N6CCOCC6)n5)ccc(F)c4F)c3C2=O)C(=O)N1` (centres unmarked) [Example 12, 4-((2-(2-(2-(2,3-difluoro-6-(2-morpholinothiazol-4-yl)phenoxy)ethoxy)ethoxy)ethyl)amino)-2-(2,6-dioxopiperidin-3-yl)isoindoline-1,3-dione], the inhibition at 10 µM was 0 to 20%. Compound `O=C1CCC(N2C(=O)c3cccc(NCCOCCOCCOCCOc4c(-c5csc(N6CCOCC6)n5)ccc(F)c4F)c3C2=O)C(=O)N1` (centres unmarked) [Example 13, 4-((2-(2-(2-(2-(2,3-difluoro-6-(2-morpholinothiazol-4-yl)phenoxy)ethoxy)ethoxy)ethoxy)ethyl)amino)-2-(2,6-dioxopiperidin-3-yl)isoindoline-1,3-dione] has an inhibition at 10 µM of 0 to 20%. `COc1cc(C(=O)NCCCCCCNC(=O)COc2c(-c3csc(N4CCOCC4)n3)ccc(F)c2F)ccc1NC(=O)[C@@H]1N[C@@H](CC(C)(C)C)[C@](C#N)(c2ccc(Cl)cc2F)[C@H]1c1cccc(Cl)c1F` [Example 29, (2R,3S,4R,5S)-3-(3-chloro-2-fluorophenyl)-4-(4-chloro-2-fluorophenyl)-4-cyano-N-(4-((6-(2-(2,3-difluoro-6-(2-morpholinothiazol-4-yl)phenoxy)acetamido)hexyl)carbamoyl)-2-methoxyphenyl)-5-neopentylpyrrolidine-2-carboxamide] was tested, and the inhibition at 10 µM was < 50%. For `Cc1ncsc1-c1ccc([C@H](C)NC(=O)[C@@H]2C[C@@H](O)CN2C(=O)[C@@H](NC(=O)CCCCNC(=O)c2cccc3sc(N4CCOCC4)nc23)C(C)(C)C)cc1` [Example 30, N-(5-(((S)-1-((2S,4R)-4-hydroxy-2-(((S)-1-(4-(4-methylthiazol-5-yl)phenyl)ethyl)carbamoyl)pyrrolidin-1-yl)-3,3-dimethyl-1-oxobutan-2-yl)amino)-5-oxopentyl)-2-morpholinobenzo[d]thiazole-4-carboxamide], the inhibition at 10 µM was < 50%. Work on `O=C(COc1c(-c2csc(N3CCOCC3)n2)ccc(F)c1F)NCCOCCOCCOCCNc1cccc2c1C(=O)N(C1CCC(=O)NC1=O)C2=O` (centres unmarked) [Example 5, 2-(2,3-difluoro-6-(2-morpholinothiazol-4-yl)phenoxy)-N-(2-(2-(2-(2-((2-(2,6-dioxopiperidin-3-yl)-1,3-dioxoisoindolin-4-yl)amino)ethoxy)ethoxy)ethoxy)ethyl)acetamide] yielded an inhibition at 10 µM of 0 to 20%. For `Cc1ncsc1-c1ccc([C@H](CC(=O)NCCCCNC(=O)COc2c(-c3csc(N4CCOCC4)n3)ccc(F)c2F)NC(=O)[C@@H]2C[C@@H](O)CN2C(=O)[C@@H](NC(=O)C2(F)CC2)C(C)(C)C)cc1` [Example 22, (2S,4R)-N-((S)-3-((4-(2-(2,3-difluoro-6-(2-morpholinothiazol-4-yl)phenoxy)acetamido)butyl)amino)-1-(4-(4-methylthiazol-5-yl)phenyl)-3-oxopropyl)-1-((S)-2-(1-fluorocyclopropane-1-carboxamido)-3,3-dimethylbutanoyl)-4-hydroxypyrrolidine-2-carboxamide], the inhibition at 10 µM was 0 to 20%. `O=C(COc1c(-c2csc(N3CCOCC3)n2)ccc(F)c1F)NCCOCCOCCOCCOCCNc1cccc2c1C(=O)N(C1CCC(=O)NC1=O)C2=O` (centres unmarked) [Example 6, 2-(2,3-difluoro-6-(2-morpholinothiazol-4-yl)phenoxy)-N-(14-((2-(2,6-dioxopiperidin-3-yl)-1,3-dioxoisoindolin-4-yl)amino)-3,6,9,12-tetraoxatetradecyl)acetamide] showed an inhibition at 10 µM of 0 to 20%. `Cc1ncsc1-c1ccc([C@H](CC(=O)NCCCCCCNC(=O)COc2c(-c3csc(N4CCOCC4)n3)ccc(F)c2F)NC(=O)[C@@H]2C[C@@H](O)CN2C(=O)[C@@H](NC(=O)C2(F)CC2)C(C)(C)C)cc1` [Example 23, (2S,4R)-N-((S)-3-((6-(2-(2,3-difluoro-6-(2-morpholinothiazol-4-yl)phenoxy)acetamido)hexyl)amino)-1-(4-(4-methylthiazol-5-yl)phenyl)-3-oxopropyl)-1-((S)-2-(1-fluorocyclopropane-1-carboxamido)-3,3-dimethylbutanoyl)-4-hydroxypyrrolidine-2-carboxamide] was tested, and the inhibition at 10 µM was 0 to 20%. In the case of `O=C(COc1cccc2c1C(=O)N(C1CCC(=O)NC1=O)C2=O)NCCCCCCCCCCNC(=O)COc1c(-c2csc(N3CCOCC3)n2)ccc(F)c1F` (centres unmarked) [Example 9, 2-(2,3-difluoro-6-(2-morpholinothiazol-4-yl)phenoxy)-N-(10-(2-((2-(2,6-dioxopiperidin-3-yl)-1,3-dioxoisoindolin-4-yl)oxy)acetamido)decyl)acetamide], the inhibition at 10 µM is reported as 0 to 20%. For `Cc1ncsc1-c1ccc([C@H](C)NC(=O)[C@@H]2C[C@@H](O)CN2C(=O)[C@@H](NC(=O)COCCCNC(=O)COc2c(-c3csc(N4CCOCC4)n3)ccc(F)c2F)C(C)(C)C)cc1` [Example 19, (2S,4R)-1-((S)-2-(2-(3-(2-(2,3-difluoro-6-(2-morpholinothiazol-4-yl)phenoxy)acetamido)propoxy)acetamido)-3,3-dimethylbutanoyl)-4-hydroxy-N-((S)-1-(4-(4-methylthiazol-5-yl)phenyl)ethyl)pyrrolidine-2-carboxamide], the inhibition at 10 µM was < 50%. With `O=C(COc1cccc2c1C(=O)N(C1CCC(=O)NC1=O)C2=O)NCCCCCCCCNC(=O)COc1c(-c2csc(N3CCOCC3)n2)ccc(F)c1F` (centres unmarked) [Example 8, 2-(2,3-difluoro-6-(2-morpholinothiazol-4-yl)phenoxy)-N-(8-(2-((2-(2,6-dioxopiperidin-3-yl)-1,3-dioxoisoindolin-4-yl)oxy)acetamido)octyl)acetamide] the inhibition at 10 µM was 0 to 20%. With `Cc1ncsc1-c1ccc([C@H](C)NC(=O)[C@@H]2C[C@@H](O)CN2C(=O)[C@@H](NC(=O)CCCCCCCOc2c(-c3csc(N4CCOCC4)n3)ccc(F)c2F)C(C)(C)C)cc1` [Example 21, (2S,4R)-1-((S)-2-(8-(2,3-difluoro-6-(2-morpholinothiazol-4-yl)phenoxy)octanamido)-3,3-dimethylbutanoyl)-4-hydroxy-N-((S)-1-(4-(4-methylthiazol-5-yl)phenyl)ethyl)pyrrolidine-2-carboxamide] the inhibition at 10 µM was < 50%. Work on `O=C(COc1cccc2c1C(=O)N(C1CCC(=O)NC1=O)C2=O)NCCOCCOCCNC(=O)COc1c(-c2csc(N3CCOCC3)n2)ccc(F)c1F` (centres unmarked) [Example 10, 2-(2,3-difluoro-6-(2-morpholinothiazol-4-yl)phenoxy)-N-(2-(2-(2-(2-((2-(2,6-dioxopiperidin-3-yl)-1,3-dioxoisoindolin-4-yl)oxy)acetamido)ethoxy)ethoxy)ethyl)acetamide] yielded an inhibition at 10 µM of 0 to 20%. In the case of `O=C(COc1c(-c2csc(N3CCOCC3)n2)ccc(F)c1F)NCCOCCOCCNc1cccc2c1C(=O)N(C1CCC(=O)NC1=O)C2=O` (centres unmarked) [Example 4, 2-(2,3-difluoro-6-(2-morpholinothiazol-4-yl)phenoxy)-N-(2-(2-(2-((2-(2,6-dioxopiperidin-3-yl)-1,3-dioxoisoindolin-4-yl)amino)ethoxy)ethoxy)ethyl)acetamide], the inhibition at 10 µM is reported as 0 to 20%. `O=C(COc1cccc2c1C(=O)N(C1CCC(=O)NC1=O)C2=O)NCCCCCCNC(=O)COc1c(-c2csc(N3CCOCC3)n2)ccc(F)c1F` (centres unmarked) [Example 7, 2-(2,3-difluoro-6-(2-morpholinothiazol-4-yl)phenoxy)-N-(6-(2-((2-(2,6-dioxopiperidin-3-yl)-1,3-dioxoisoindolin-4-yl)oxy)acetamido)hexyl)acetamide] gave an inhibition at 10 µM of 0 to 20%. In the case of `COc1cc(C(=O)NCCOCCOCCOc2c(-c3csc(N4CCOCC4)n3)ccc(F)c2F)ccc1NC(=O)[C@@H]1N[C@@H](CC(C)(C)C)[C@](C#N)(c2ccc(Cl)cc2F)[C@H]1c1cccc(Cl)c1F` [Example 27, (2R,3S,4R,5S)-3-(3-chloro-2-fluorophenyl)-4-(4-chloro-2-fluorophenyl)-4-cyano-N-(4-((2-(2-(2-(2,3-difluoro-6-(2-morpholinothiazol-4-yl)phenoxy)ethoxy)ethoxy)ethyl)carbamoyl)-2-methoxyphenyl)-5-neopentylpyrrolidine-2-carboxamide], the inhibition at 10 µM is reported as > 50%.
